# Laboratory results taken from US9808477B2 (Macau University of Science and Technology, priority 2015, dated 2017).
# Read-outs that look alike come from different tables or passages of the source.
# Experiments:
# [1] = test system: A2780/T cells; experiment: Combination index, Chou-Talalay method (CalcuSyn); type: cell-based, human
# [2] = test system: A2780/T cells; experiment: Cell cycle analysis (PI, flow cytometry); type: cell-based, human
# Experimental: A2780/T cells were harvested 24 hours, 48 hours, or 72 hours after treatment and washed twice with ice-cold PBS. The cells were fixed and permeabilized with 70% ice-cold ethanol overnight at 4° C. or 2 h at −20° C. After one additional wash in PBS, cells were stained with a staining solution containing propidium iodide (PI) ([…]) and RNase A (250 μg/ml) for 30 min at room temperature. They were then pelleted, washed and suspended in PBS to a final concentration of 1×10^6/ml and analyzed by flow cytometry BD FACS Aria (BD Biosciences, San Jose, Calif.).
# [3] = test system: A2780/T cells; experiment: Apoptosis analysis by Annexin-V/PI double staining; type: cell-based, human
# Experimental: After treatment, 1×10^6 cells were collected, washed and suspended in 100 μl of binding buffer (10 mM N-2-hydroxyethylpiperazine-N,-2-ethanesulfonic acid/NaOH, 140 mM NaCl, 2.5 mM CaCl2, pH 7.4). Apoptotic cells were identified by double supravital staining with 5 μl recombinant FITC (fluorescein isothiocyanate)-conjugated Annexin-V and 5 μl PI (50 μg/ml). The cells were stained for […] at room temperature in the dark, and analyzed by fluorescence-activated cell sorting cater-plus flow cytometry. Data acquisition and analysis were performed in BD FACS Aria with FlowJo software.
# [4] = test system: A2780/T cells; experiment: Colony formation assay; type: cell-based, human; details: 12 days
# Source text: The A2780/T cells were trypsinized and plated in fresh culture medium at a density of 600 cells/9.6 cm^2 plate. Subsequently, the cells were fixed with 70% ethanol and stained with crystal violet (0.5% in ethanol). The plates were rinsed with phosphate buffered saline (PBS), and the colony numbers were counted using the software of Quantity one-Colony counting.
# [5] = biological target: T1, recombinant human ABCB1 membranes (P-gp ATPase) (Homo sapiens, UniProt P08183); experiment: ABCB1 ATPase activity assay (PgpGlo); type: biochemical
# T1 construct: purchased Promega
# T1 sequence (P08183 whole entry): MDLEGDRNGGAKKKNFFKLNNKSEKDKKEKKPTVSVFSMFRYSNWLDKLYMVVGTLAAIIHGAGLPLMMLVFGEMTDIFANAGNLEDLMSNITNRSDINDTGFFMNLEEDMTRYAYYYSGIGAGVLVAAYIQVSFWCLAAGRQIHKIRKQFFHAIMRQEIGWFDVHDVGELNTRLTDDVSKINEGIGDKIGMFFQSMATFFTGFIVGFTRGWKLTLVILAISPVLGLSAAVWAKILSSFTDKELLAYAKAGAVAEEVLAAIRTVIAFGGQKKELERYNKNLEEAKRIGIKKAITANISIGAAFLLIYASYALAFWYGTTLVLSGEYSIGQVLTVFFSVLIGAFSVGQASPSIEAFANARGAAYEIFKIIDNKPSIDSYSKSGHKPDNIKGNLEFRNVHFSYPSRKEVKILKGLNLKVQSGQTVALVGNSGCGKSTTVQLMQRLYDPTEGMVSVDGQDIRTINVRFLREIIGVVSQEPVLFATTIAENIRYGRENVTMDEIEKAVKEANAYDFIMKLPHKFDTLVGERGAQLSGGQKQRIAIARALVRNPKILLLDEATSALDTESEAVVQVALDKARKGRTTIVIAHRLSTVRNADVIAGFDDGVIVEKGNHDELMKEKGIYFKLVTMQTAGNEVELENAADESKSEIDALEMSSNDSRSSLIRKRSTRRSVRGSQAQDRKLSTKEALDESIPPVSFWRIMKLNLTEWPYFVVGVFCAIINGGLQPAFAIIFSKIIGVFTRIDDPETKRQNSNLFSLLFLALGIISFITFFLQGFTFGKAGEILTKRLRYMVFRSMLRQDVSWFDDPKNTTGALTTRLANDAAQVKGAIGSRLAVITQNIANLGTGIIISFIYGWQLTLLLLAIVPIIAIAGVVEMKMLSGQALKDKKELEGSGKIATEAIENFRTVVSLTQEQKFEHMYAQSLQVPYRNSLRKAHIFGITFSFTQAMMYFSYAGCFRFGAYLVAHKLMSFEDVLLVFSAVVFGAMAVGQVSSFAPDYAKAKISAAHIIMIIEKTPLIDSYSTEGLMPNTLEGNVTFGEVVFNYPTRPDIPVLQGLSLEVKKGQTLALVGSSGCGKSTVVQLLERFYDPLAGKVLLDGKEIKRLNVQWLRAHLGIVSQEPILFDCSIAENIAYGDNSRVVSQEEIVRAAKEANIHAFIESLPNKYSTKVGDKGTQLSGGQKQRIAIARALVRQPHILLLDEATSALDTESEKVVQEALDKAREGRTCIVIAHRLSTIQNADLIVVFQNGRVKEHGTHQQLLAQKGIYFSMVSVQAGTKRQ
# Experimental: Sodium orthovanadate (Na3VO4) was used as an ABCB1 ATPase inhibitor. […] Luminescence was initiated by ATP detection buffer. The plate (white opaque 96-well, corning, USA) was further incubated at room temperature for […] to develop luminescent signal, and was read with luminometer (infinite M200 PRO, TECAN, Switzerland).
# [6] = test system: P-gp, p53, AKT/ERK, Nrf2 in A2780/T cells; experiment: Western blot analysis; type: cell-based, human
# Experimental: The total cellular samples were harvested and rinsed twice with ice-cold PBS buffer. Cell extracts were lysed in RIPA buffer (50 mM Tris (pH 7.4), 150 mM NaCl, 1% Triton X-100, 1% sodium deoxycholate, 0.1% SDS, sodium orthovanadate, sodium fluoride and EDTA) containing protease inhibitor cocktails (Roche Life Science, USA). Protein concentration was determined using the BCA protein assay kit. Equal amounts of cell lysates were resolved by SDS-PAGE and subsequently electrophoretically transferred onto PVDF membranes (Millipore, Darmstadt, Germany). After blocking in tris-buffered saline containing 0.1% of Tween20 (TBST) with 5% (w/v) skim milk (Nestle Carnation, New Zealand) for 2 h at room temperature, the membranes were incubated with primary and secondary antibodies and subsequently visualized with an enhanced chemiluminescence detection kit (Thermo Scientific™ SuperSignal™ West Pico Chemiluminescent Substrate, USA). β-Actin was used as the loading control for the experimental data analysis.
# [7] = in vitro; type: cell-based; details: human
# Experimental: (§1) Sulphorhodamine B (SRB) assays were used for cell density determination, based on sensitive measure of total cellular protein, which perform similarly compared with other proliferation assays such as MTT assay. Briefly, cells were seeded into flat bottomed 96-well plates at an initial density of 7.5×10^3 per well before treatment. […] After removing the medium, cells were fixed in 10% trichloroacetic acid for 1 h at 4° C. and then washed with water five times. 0.4% SRB dissolved in 1% v/v acetic acid was added and incubated […] for staining. The cells were quickly washed with 1% acetic acid and left to dry overnight. The protein bound SRB was solubilized by adding 200 μl 10 mM Tris buffer per well and was measured at wavelengths 490 nm using a plate reader (Spectra MAX 250; Molecular Devices, Sunnyvale, Calif.). The optical density of SRB in each well is directly proportional to the cell number.
# [8] = test system: prostate cancer cell lines; details: several prostate cancer cell lines; read-out: IC50, growth inhibition; cited from earlier work
# [9] = test system: A2780/T cells (PTX-resistant, ABCB1-overexpressing ovarian cancer cells); experiment: cells; type: cell-based, human; details: Homo sapiens, A2780, 48 h, A2780/T, 48 h, SRB, drug alone (no nobiletin); read-out: IC50 ± SD
# Experimental: as §1
# [10] = in vitro; type: cell-based; details: human; remark: listed apart in the source
# Experimental: as §1
# [11] = test system: Caco-2 cells; details: nobiletin 20 μM; cited from earlier work
# [12] = rats, single administration 50 mg/kg by gavage; cited from earlier work
# [13] = healthy subjects, single dose of Sytrinol (1053 mg total polymethoxylated flavones); cited from earlier work
# [14] = test system: A2780/T cells; experiment: Intracellular accumulation of doxorubicin and Flutax-2; type: cell-based, human; details: 8 h, 4.5 μM nobiletin or 20 μM QND
# [15] = test system: ABCB1 transfected cell line LLC-GA5-COL300; details: nobiletin 20 μM; cited from earlier work
# [16] = nobiletin 9 μM in combination with 0.94 μM PTX
# [17] = 9 μM nobiletin alone or 0.94 μM PTX alone
smiles,measurement,setting,value
COc1ccc(-c2cc(=O)c3c(OC)c(OC)c(OC)c(OC)c3o2)cc1OC [nobiletin],EC50,"[1]; Homo sapiens, A2780, read-out: Dose N at Fa = 0.5 (ED50), CalcuSyn simulation, A2780/T, nobiletin dose, alone or in the combination",36 µM
same,decrease of the ED50 dose of PTX,"[1]; combination with 0.286 μM nobiletin, A2780/T",200 fold
same,effect on the cell cycle,[2]; nobiletin 9 μM alone,no effect
same,G1 phase cells,[2]; [16],9.6%
same,G2 phase cells,[2]; [16],75.77%
same,"apoptosis induction, single treatment",[3]; [17],did not show apoptosis induction
same,apoptosis induced by 0.94 μM PTX (annexin V-FITC positive),"[3]; 0.5, 1.5, 4.5 and 9 μM nobiletin + 0.94 μM PTX, 48 h",significantly increase apoptosis
same,"inhibition of colony formation, single agent",[4]; [17],no inhibition
same,"inhibition of colony formation, combination",[4]; different concentrations of nobiletin with 0.94 μM PTX,Complete inhibition
same,EC50,[5],5.88 µM
same,IC50,[5],7.17 µM
same,maximal stimulation of ATPase activity relative to basal activity,"[5]; human, 40 min",3 fold
same,phosphorylated AKT/ERK level,[6]; 50 μM nobiletin,significant decrease
same,phosphorylated AKT and ERK,"[6]; PTX and nobiletin, 48 h",significant inhibitory effect
same,p53 level,[6]; PTX in combination with nobiletin,accumulation of p53
same,expression of total and phosphorylated AKT and ERK,[6]; nobiletin alone at reversal concentrations,no effect
same,protein level of ABCB1,"[6]; nobiletin at concentrations used in reversal assays, 48 h",did not significantly alter
same,protein level of Nrf2,"[6]; nobiletin in combination with 0.94 μM PTX, dose-dependent",reduced
same,viability at 9 µM,[7],> 90%
same,IC50,[8],~100 µM
same,IC50,[9],31.6 µM
same,viability at 9 µM,[10],> 90%
same,increase of uptake of [3H] vinblastine,[11],3 fold
same,peak plasma level,[12],~22.5 µM
same,peak plasma level,[13],~2.5 µM
same,intracellular accumulation of DOX,[14]; 5 μM DOX,higher than that in untreated A2780/T
same,intracellular accumulation of Flutax-2,[14]; Flutax-2 1 μM,higher than that in untreated A2780/T
same,increase of uptake of [3H] vinblastine,[15],1.8 fold
